In one experiment the target is Acetylcholinesterase (Homo sapiens, UniProt P22303). The class given is functional.
A further experiment deals with T1, Adenosine receptor A3 (Homo sapiens, UniProt P0DMS8).
T1 sequence (P0DMS8 whole entry): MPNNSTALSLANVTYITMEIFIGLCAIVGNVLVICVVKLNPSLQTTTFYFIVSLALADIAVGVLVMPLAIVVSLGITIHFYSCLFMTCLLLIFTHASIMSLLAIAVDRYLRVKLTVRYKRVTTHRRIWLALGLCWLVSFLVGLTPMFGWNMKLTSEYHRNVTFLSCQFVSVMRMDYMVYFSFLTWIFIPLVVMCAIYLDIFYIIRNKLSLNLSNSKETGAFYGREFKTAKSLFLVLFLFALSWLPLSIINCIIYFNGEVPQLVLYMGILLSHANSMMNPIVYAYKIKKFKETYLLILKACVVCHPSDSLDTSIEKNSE

In experiment [1] the target is T2, Alpha-2A adrenergic receptor (Homo sapiens, UniProt P08913).
T2 sequence (P08913 whole entry): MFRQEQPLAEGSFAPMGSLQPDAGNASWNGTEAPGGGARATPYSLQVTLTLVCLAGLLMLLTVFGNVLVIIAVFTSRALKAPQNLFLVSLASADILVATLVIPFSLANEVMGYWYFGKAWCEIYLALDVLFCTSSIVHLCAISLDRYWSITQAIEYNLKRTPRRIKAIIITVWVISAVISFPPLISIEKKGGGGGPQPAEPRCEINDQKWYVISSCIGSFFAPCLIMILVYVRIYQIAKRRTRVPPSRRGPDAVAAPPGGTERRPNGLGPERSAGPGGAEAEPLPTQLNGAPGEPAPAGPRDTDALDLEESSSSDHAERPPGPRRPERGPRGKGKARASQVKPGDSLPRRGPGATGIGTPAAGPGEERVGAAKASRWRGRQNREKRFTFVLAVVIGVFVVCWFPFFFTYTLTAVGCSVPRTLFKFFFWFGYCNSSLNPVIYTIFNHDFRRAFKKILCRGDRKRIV

In experiment [2] the target is T3, Muscarinic acetylcholine receptor M2 (Homo sapiens, UniProt P08172).
T3 sequence (P08172 whole entry): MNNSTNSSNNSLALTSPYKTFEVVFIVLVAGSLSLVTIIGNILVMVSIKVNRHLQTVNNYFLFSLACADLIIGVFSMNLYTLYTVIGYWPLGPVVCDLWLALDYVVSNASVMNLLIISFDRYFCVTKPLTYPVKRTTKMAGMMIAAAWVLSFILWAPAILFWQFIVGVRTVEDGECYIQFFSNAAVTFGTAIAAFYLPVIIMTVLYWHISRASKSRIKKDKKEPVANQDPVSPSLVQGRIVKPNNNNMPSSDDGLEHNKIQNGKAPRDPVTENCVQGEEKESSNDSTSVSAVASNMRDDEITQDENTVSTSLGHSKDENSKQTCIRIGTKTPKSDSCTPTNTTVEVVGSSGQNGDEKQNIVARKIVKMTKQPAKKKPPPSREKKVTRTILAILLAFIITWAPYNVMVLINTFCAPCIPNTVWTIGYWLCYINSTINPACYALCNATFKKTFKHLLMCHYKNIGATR

The target of the next experiment is Prothrombin (Homo sapiens, UniProt P00734). The class given is functional.
The next experiment concerns the target Histamine H3 receptor (Homo sapiens, UniProt Q9Y5N1).
In experiment [3] the target is 5-hydroxytryptamine receptor 2B (Homo sapiens, UniProt P41595). The class given is functional, cell-based.
5-hydroxytryptamine receptor 2B, sequence (P41595 whole entry): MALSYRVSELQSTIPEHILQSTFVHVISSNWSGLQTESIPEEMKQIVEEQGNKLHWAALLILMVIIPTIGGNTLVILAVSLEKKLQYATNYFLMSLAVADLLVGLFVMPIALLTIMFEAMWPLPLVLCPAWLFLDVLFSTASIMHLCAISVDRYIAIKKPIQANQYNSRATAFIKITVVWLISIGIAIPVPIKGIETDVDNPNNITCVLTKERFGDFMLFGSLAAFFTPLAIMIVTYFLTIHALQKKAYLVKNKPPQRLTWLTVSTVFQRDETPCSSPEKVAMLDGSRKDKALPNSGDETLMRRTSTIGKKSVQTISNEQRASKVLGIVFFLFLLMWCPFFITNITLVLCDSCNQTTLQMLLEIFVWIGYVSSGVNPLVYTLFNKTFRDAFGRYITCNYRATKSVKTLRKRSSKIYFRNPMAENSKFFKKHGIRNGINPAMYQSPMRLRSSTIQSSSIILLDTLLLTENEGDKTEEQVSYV
Experiment [4] addresses Voltage-gated inwardly rectifying potassium channel KCNH2 (Homo sapiens, UniProt Q12809). Type of experiment: functional. Conditions: read-out: AC50.
Experiment [5] addresses Vascular endothelial growth factor receptor 2 (Homo sapiens, UniProt P35968). The class given is functional.
The target of experiment [6] is T4, Amine oxidase [flavin-containing] A (Homo sapiens, UniProt P21397).
T4 sequence (P21397 whole entry): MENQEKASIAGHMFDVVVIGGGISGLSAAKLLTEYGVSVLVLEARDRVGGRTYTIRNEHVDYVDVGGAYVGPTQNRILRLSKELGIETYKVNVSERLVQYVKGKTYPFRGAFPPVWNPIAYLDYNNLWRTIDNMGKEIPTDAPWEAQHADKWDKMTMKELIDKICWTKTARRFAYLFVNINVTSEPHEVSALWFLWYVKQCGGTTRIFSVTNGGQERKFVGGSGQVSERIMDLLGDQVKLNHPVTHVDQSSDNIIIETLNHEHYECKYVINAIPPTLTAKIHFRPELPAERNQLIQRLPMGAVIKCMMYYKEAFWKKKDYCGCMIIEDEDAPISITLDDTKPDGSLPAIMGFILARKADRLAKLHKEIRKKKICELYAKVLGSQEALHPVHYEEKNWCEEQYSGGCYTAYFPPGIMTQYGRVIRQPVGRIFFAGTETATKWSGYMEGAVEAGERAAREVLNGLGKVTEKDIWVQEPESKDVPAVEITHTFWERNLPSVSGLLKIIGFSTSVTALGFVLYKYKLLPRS
The class given is functional.

The target in a further experiment is Mu-type opioid receptor (Homo sapiens, UniProt P35372).
Mu-type opioid receptor, sequence (P35372 whole entry): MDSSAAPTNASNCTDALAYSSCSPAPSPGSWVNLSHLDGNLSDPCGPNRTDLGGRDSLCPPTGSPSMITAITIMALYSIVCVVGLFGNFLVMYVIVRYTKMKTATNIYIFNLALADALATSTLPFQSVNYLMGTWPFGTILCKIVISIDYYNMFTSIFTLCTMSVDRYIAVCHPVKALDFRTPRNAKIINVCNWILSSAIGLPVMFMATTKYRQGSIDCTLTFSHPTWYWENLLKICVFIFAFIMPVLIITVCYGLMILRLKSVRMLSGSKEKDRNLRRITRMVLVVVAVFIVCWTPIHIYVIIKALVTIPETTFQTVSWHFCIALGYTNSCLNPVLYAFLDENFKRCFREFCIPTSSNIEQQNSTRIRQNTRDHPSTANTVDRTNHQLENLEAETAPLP
Experiment [7] addresses cGMP-inhibited 3',5'-cyclic phosphodiesterase 3A (Homo sapiens, UniProt Q14432). Type of experiment: functional.
Experiment [8] deals with T5, Prostaglandin G/H synthase 1 (Homo sapiens, UniProt P23219). The class given is functional.
T5 sequence (P23219 whole entry): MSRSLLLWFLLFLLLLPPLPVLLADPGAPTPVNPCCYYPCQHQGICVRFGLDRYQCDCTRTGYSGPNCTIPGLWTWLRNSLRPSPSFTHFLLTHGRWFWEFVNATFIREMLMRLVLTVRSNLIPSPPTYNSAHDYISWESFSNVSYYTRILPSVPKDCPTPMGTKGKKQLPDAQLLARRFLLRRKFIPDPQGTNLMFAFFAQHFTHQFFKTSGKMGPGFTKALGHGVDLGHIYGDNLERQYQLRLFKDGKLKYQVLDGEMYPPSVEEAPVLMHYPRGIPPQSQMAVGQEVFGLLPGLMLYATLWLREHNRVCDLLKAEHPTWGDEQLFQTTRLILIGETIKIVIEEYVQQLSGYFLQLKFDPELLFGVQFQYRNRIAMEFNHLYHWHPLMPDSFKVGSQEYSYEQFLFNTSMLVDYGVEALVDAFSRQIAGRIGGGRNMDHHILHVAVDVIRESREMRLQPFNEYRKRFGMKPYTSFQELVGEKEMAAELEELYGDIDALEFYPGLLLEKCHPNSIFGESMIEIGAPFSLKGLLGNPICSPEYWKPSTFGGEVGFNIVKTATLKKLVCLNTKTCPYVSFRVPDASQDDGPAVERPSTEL
Experiment [9] has as its target T5, Prostaglandin G/H synthase 1. The class given is functional. This is another data set of the same source.
Another experiment has as its target T6, Thromboxane A2 receptor (Homo sapiens, UniProt P21731).
T6 sequence (P21731 whole entry): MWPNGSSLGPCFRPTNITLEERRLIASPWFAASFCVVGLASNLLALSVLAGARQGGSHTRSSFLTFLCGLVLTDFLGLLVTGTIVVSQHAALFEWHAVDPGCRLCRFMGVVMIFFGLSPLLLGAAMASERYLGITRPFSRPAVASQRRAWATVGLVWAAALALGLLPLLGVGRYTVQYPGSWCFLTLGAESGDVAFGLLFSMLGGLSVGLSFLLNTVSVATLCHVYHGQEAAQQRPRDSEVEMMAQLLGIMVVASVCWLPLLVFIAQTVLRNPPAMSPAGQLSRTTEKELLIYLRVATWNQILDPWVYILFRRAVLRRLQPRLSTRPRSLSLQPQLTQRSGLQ
The class given is functional, cell-based.

This note sets out measurements from ChEMBL document CHEMBL5291721, “A preclinical secondary pharmacology resource illuminates target-adverse drug reaction associations of marketed drugs” (Nat Commun, 2023).

The structures appear in SMILES notation.

As a reminder, the AC50 is the concentration at which the activity in the assay is half-maximal.
Note: assay procedure not described here.

cGMP-inhibited 3',5'-cyclic phosphodiesterase 3A, sequence (Q14432 whole entry): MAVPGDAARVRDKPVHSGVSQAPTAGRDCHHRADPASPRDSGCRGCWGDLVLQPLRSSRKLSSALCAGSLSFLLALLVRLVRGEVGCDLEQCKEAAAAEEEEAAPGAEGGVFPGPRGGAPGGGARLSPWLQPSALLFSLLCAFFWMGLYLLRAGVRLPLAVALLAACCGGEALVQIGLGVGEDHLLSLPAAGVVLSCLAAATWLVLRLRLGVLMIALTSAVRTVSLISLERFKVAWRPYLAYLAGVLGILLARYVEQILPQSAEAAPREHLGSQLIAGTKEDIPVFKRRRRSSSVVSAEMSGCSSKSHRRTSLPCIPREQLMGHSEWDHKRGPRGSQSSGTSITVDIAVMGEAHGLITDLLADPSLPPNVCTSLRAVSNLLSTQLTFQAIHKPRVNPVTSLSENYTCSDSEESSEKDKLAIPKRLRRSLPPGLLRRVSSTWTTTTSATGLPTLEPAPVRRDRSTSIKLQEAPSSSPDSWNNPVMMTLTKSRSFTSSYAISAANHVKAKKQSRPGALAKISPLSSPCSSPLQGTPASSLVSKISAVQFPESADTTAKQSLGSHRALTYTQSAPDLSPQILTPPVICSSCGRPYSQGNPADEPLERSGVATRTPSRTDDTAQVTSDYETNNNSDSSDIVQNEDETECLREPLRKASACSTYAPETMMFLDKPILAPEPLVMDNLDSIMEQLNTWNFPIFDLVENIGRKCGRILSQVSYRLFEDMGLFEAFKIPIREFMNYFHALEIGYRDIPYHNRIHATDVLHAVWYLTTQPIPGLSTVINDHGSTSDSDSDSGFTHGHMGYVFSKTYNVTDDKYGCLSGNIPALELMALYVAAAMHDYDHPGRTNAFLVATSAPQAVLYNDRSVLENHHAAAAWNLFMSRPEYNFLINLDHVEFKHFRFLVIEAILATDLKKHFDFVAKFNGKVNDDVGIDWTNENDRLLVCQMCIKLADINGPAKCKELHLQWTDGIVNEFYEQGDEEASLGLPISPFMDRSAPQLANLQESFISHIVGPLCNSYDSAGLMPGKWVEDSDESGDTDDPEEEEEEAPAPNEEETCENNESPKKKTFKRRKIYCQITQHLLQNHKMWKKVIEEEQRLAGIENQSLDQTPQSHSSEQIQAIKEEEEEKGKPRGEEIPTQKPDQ
Acetylcholinesterase, sequence (P22303 whole entry): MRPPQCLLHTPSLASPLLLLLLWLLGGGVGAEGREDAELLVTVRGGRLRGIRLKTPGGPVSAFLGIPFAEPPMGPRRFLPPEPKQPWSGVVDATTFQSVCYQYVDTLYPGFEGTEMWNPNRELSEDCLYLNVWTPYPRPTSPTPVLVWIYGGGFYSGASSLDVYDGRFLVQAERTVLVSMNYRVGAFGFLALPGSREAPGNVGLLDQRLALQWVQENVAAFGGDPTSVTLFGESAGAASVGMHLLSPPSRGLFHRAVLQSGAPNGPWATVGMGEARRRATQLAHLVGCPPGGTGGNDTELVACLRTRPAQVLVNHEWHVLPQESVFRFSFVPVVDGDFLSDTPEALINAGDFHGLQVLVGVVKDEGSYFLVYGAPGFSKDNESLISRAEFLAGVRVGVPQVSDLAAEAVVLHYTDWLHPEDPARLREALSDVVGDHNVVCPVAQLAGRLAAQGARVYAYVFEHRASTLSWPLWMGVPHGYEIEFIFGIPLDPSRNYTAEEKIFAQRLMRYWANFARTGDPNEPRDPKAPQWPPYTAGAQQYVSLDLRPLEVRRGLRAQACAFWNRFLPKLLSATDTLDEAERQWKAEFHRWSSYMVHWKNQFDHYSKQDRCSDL
Histamine H3 receptor, sequence (Q9Y5N1 whole entry): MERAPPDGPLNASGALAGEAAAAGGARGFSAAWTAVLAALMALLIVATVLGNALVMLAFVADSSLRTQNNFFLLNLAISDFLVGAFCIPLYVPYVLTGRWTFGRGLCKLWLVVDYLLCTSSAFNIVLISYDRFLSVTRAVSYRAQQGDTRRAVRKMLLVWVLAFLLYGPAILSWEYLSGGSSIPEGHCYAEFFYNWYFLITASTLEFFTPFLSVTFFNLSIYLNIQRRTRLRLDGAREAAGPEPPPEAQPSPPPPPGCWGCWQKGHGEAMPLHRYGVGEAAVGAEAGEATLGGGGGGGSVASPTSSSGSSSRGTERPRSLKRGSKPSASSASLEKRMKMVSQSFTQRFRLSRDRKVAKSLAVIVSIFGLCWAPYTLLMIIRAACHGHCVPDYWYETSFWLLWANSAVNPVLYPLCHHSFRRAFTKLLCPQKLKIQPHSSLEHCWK
Voltage-gated inwardly rectifying potassium channel KCNH2, sequence (Q12809 whole entry): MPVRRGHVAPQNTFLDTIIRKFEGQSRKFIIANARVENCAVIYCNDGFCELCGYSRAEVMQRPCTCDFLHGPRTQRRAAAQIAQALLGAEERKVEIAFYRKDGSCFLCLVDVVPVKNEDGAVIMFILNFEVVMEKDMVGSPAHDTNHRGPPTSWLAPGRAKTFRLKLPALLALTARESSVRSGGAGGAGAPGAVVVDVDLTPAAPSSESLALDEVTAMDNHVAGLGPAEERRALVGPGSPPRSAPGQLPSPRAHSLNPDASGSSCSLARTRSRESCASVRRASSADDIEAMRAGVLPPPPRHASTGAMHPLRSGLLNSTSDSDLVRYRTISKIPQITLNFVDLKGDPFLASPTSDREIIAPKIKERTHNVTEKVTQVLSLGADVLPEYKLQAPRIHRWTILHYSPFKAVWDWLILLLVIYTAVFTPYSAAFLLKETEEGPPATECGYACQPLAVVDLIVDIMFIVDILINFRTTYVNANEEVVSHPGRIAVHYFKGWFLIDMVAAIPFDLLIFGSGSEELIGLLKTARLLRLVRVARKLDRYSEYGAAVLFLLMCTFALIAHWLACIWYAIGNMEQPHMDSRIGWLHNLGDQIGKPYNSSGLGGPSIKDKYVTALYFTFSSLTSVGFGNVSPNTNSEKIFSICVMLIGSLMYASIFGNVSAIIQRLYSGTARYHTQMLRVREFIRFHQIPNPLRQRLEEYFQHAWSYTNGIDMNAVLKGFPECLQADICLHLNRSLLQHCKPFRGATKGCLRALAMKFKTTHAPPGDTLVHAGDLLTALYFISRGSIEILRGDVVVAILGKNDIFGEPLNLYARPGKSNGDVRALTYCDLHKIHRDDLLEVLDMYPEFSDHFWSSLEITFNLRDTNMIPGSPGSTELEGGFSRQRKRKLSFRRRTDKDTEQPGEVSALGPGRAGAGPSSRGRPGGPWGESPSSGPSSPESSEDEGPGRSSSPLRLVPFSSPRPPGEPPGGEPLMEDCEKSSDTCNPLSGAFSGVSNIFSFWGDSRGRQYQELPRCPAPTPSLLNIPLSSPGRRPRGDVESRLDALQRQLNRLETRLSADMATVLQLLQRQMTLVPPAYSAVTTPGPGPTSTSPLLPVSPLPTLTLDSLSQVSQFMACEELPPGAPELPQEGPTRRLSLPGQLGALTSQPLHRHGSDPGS

As to `CC[C@H]1CN2CC[C@H]1C[C@H]2[C@H](O)c1ccnc2ccc(OC)cc12` [HYDROQUININE], the AC50 at Acetylcholinesterase was greater than 30 µM; at Adenosine receptor A3, greater than 30 µM; in experiment [1], 3.59 µM; in [2] it was 23.4 µM; on Prothrombin, greater than 30 µM; at Histamine H3 receptor, greater than 30 µM. Further, the concentration at half-maximal activity (AC50) is greater than 30 µM in experiment [3]; 10 µM in experiment [4]; greater than 30 µM in experiment [5]; greater than 30 µM in experiment [6]; 8.13 µM on Mu-type opioid receptor; greater than 30 µM in experiment [7]. Further, the concentration at half-maximal activity (AC50) (in experiment [8]; in [9]; on Thromboxane A2 receptor) was greater than 30 µM throughout.
For `O=c1[nH]c(=O)n([C@H]2C[C@H](O)[C@@H](CO)O2)cc1I` [IDOXURIDINE], the concentration at half-maximal activity (AC50) (on Acetylcholinesterase; at Adenosine receptor A3; in [1]; in experiment [2]; at Prothrombin; on Histamine H3 receptor) was greater than 30 µM each time. Besides, the AC50 (in [3]; in [4]; in experiment [5]; in experiment [6]; on Mu-type opioid receptor; in experiment [7]) was greater than 30 µM each time. Also, the AC50 (in experiment [8]; in experiment [9]; on Thromboxane A2 receptor) was greater than 30 µM in each case.
For the compound `Cc1ccccc1OCC(O)CO` (stereo not given) [MEPHENESIN], the concentration at half-maximal activity (AC50) (at Acetylcholinesterase; at Adenosine receptor A3; in experiment [1]; in experiment [2]; on Prothrombin; at Histamine H3 receptor) was greater than 30 µM in each case. The AC50 (in [3]; in [4]; in [5]; in experiment [6]; at Mu-type opioid receptor; in experiment [7]) was greater than 30 µM each time. Further, the AC50 (in [8]; in [9]; at Thromboxane A2 receptor) was greater than 30 µM throughout.
Take `CCN(CC)CCc1nc(-c2ccccc2)no1` [OXOLAMINE]: the AC50 at Acetylcholinesterase was greater than 30 µM; on Adenosine receptor A3, greater than 30 µM; in [1], greater than 30 µM; in experiment [2], greater than 30 µM; at Prothrombin, greater than 30 µM; on Histamine H3 receptor, 23.9 µM. Further, the AC50 (in experiment [3]; in experiment [4]; in experiment [5]; in experiment [6]; on Mu-type opioid receptor; in experiment [7]) was greater than 30 µM each time. For the same compound, the AC50 (in experiment [8]; in [9]; on Thromboxane A2 receptor) was greater than 30 µM in each case.
As to `C[N+]1(CCCCC[N+]2(C)CCCC2)CCCC1` [PENTOLINIUM], the half-maximal activity concentration (AC50) (on Acetylcholinesterase; at Adenosine receptor A3; in [1]; in experiment [2]; on Prothrombin; on Histamine H3 receptor) was greater than 30 µM each time. The AC50 (in [3]; in [4]; in experiment [5]; in experiment [6]; on Mu-type opioid receptor; in experiment [7]) was greater than 30 µM each time. Besides, the half-maximal activity concentration (AC50) (in [8]; in experiment [9]; on Thromboxane A2 receptor) was greater than 30 µM each time.
As to `O=C(O)c1ccccc1C(=O)Nc1ccc(S(=O)(=O)Nc2nccs2)cc1` [PHTHALYLSULFATHIAZOLE], the concentration at half-maximal activity (AC50) (on Acetylcholinesterase; on Adenosine receptor A3; in [1]; in [2]; on Prothrombin; on Histamine H3 receptor) was greater than 30 µM throughout. For the same compound, the AC50 (in experiment [3]; in experiment [4]; in experiment [5]; in [6]; at Mu-type opioid receptor; in experiment [7]) was greater than 30 µM throughout. Besides, the AC50 was 8.95 µM in experiment [8], 20 µM in experiment [9] and greater than 30 µM on Thromboxane A2 receptor.
For the compound `CC(C)(C)C(=O)OCOC(=O)[C@@H]1N2C(=O)[C@@H](NC(=O)[C@H](N)c3ccccc3)[C@H]2SC1(C)C` [PIVAMPICILLIN], the AC50 (on Acetylcholinesterase; at Adenosine receptor A3; in [1]; in experiment [2]; on Prothrombin; on Histamine H3 receptor) was greater than 30 µM throughout. Moreover, the concentration at half-maximal activity (AC50) (in experiment [3]; in experiment [4]; in experiment [5]; in experiment [6]; at Mu-type opioid receptor; in experiment [7]) was greater than 30 µM in each case. The AC50 was 7.48 µM in experiment [8], greater than 30 µM in experiment [9] and greater than 30 µM on Thromboxane A2 receptor.
As for `COc1cc([C@@H]2c3cc4c(cc3[C@H](O)[C@H]3COC(=O)[C@H]23)OCO4)cc(OC)c1OC` [PODOFILOX], the AC50 (on Acetylcholinesterase; at Adenosine receptor A3; in [1]; in [2]; at Prothrombin; on Histamine H3 receptor) was greater than 30 µM each time. Moreover, the concentration at half-maximal activity (AC50) (in experiment [3]; in [4]; in [5]; in experiment [6]; on Mu-type opioid receptor; in experiment [7]) was greater than 30 µM throughout. Moreover, the half-maximal activity concentration (AC50) (in [8]; in [9]; on Thromboxane A2 receptor) was greater than 30 µM in each case.
For the compound `OC(CCN1CCCCC1)(c1ccccc1)c1ccccc1` [PRIDINOL], the AC50 on Acetylcholinesterase is greater than 30 µM; on Adenosine receptor A3 it was greater than 30 µM; in [1], greater than 30 µM; in [2] it was 0.129 µM; on Prothrombin, greater than 30 µM; on Histamine H3 receptor it was greater than 30 µM. For the same compound, the AC50 in [3] is greater than 30 µM; in experiment [4], 8.8 µM; in experiment [5], greater than 30 µM; in experiment [6], greater than 30 µM; at Mu-type opioid receptor it was 19.4 µM; in [7] it was greater than 30 µM. Further, the half-maximal activity concentration (AC50) (in experiment [8]; in experiment [9]; at Thromboxane A2 receptor) was greater than 30 µM each time.
